The values that follow come from PMC7878868, “Mechanisms of feedback inhibition and sequential firing of active sites in plant aspartate transcarbamoylase” (Nature Communications, 2021).

Substitutions are numbered along the chain they refer to. Numbers in names are those of the source. Where “and” joins values, the source holds several entries; their conditions need not be identical. Equal values may be shown once.

The test system of one series is Arabidopsis seedlings. The series can be described thus: Seedling assay in liquid culture with PALA (fresh weight, root length). The series is classed as in vivo, Arabidopsis thaliana. The note with it: for fresh weight compared to untreated seedlings / root length relative to untreated seedlings / root length, average: 7 days; for fresh weight compared to untreated seedlings: n = 3 (3 times 10 seedlings); for root length relative to untreated seedlings / root length, average: n = 30; for root length, average: untreated 2.68 ± 0.49 cm; for Freshweight, single replicates (10 seedlings): source data of Figure 3a; for Freshweight, average (10 seedlings): 0 mM PALA 0.1699 g. How it is done:
For DNA isolation, tissue collection and phenotypic inspection, wild-type Col-0 and transgenic Arabidopsis thaliana (L.) Heynh. plants (ecotype Columbia) were used throughout. Plants were grown in standardized soil (ED73 Einheitserde, Humuswerke Patzer) soil under long day conditions (120 μmol quanta m^−2 s^−1 in a […] regime, temperature 22 °C, humidity 60%). Prior to germination, seeds were incubated for 24 h in the dark at 4 °C for imbibition. […] The liquid cultures were maintained on a shaker at 100 rpm under the same light and temperature conditions as soil-grown plants. Leaf extract of wild-type and mutants was prepared by homogenizing leaf material in extraction buffer (50 mM HEPES-KOH pH 7.2, 5 mM MgCl2, 2 mM phenylmethylsulfonyl fluoride (PMSF) on ice. The homogenous extract was centrifuged at 20,000g for 10 min at 4 °C. The supernatant was collected and stored on ice until use.

Series [1] has as its target T1, atATC-F161A (Arabidopsis thaliana, UniProt P49077, F161A).
T1 construct: 2.6 kDa fusion tag (modified pET28a); made in house; host or cells: E. coli BLR(DE3)-pLysS
T1 sequence (P49077 82-390 F161A): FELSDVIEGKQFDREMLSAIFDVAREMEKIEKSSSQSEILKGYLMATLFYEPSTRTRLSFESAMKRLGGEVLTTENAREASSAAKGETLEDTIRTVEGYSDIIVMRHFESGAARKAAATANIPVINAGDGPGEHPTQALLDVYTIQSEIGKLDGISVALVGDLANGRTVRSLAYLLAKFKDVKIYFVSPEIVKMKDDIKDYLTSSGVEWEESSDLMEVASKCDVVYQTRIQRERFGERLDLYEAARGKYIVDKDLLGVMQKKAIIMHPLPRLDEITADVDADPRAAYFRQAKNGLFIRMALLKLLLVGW
The experiment in a line: Colorimetric ATC activity assay, atATC F161A. The series is classed as biochemical. The note with it: for Activity F161A: 10 mM Asp. The protocol:
(§1) Activity was assayed by a colorimetric method[64] adapted to a 96-well plate format. […] Reagent B is light sensitive and was stored at 4 °C in the dark. The color reagents were gently mixed and stored at 4 °C in the dark until added to the sample. Reaction tubes were closed, boiled at 95 °C for 15 min, and kept in the dark for 30 min before measuring the absorbance at 450 nm in a Tecan infinite m200 microplate reader (Tecan). […] Data analysis was done with GraphPad. […] Protein concentration in the assay was 0.3 µM (0.01 mg ml^−1) both for WT and F161A.

Series [2] concerns the target T2, atATC (Arabidopsis ATC aa 82–390) WT (Arabidopsis thaliana, UniProt P49077).
T2 construct: 2.6 kDa fusion tag (modified pET28a); made in house; host or cells: E. coli BLR(DE3)-pLysS
T2 sequence (P49077 82-390): T1 sequence (P49077 82-390 F161A) with A80F
The experiment in a line: Isothermal titration calorimetry (ITC), atATC WT. The following applies: site 1. The series is classed as binding. The protocol:
(§2) Experiments were performed in an Auto-iTC200 calorimeter (MicroCal, Malvern-Panalytical) at 25 °C with a 0.2 ml reaction cell and 30–40 µM protein solution (in protomer units) in the cell. […] All solutions were in GF buffer and degassed and mixed in the cell by stirring at 750 rpm. Data analysis was performed with Origin 7 (OriginLab) using a general three-site cooperative and a non-cooperative binding model, restricted to one or two ligand binding sites when convenient[24],[62],[63]. Non-linear least-squares regression analysis was employed to estimate dissociation constants for the interaction of the different ligands with ATC.

The target in series [3] is T1, atATC-F161A. The series can be described thus: biochemical. The series is classed as binding. The protocol:
as §2

The target in the next series is T3, atATC WT (Arabidopsis thaliana, UniProt P49077).
T3 construct: 2.6 kDa fusion tag (modified pET28a); made in house; host or cells: E. coli BLR(DE3)-pLysS
T3 sequence (P49077 82-390): T1 sequence (P49077 82-390 F161A) with A80F
The series can be described thus: Colorimetric ATC activity assay, atATC WT. The series is classed as biochemical. The following applies: 10 mM Asp. How it is done:
as §1

The next series concerns plant ATCs. More on the design: method as in PMID 14479231, doi:10.1093/jxb/40.10.1121. The following applies: cited from earlier work.
Series [4] deals with the molecule itself. The series can be described thus: SEC-MALS; 400 ul of purified protein at 1.4 mg/ml on Superdex 200 10/300 in GF buffer (20 mM Tris pH 7.0, 0.1 M NaCl, 2% glycerol, 0.2 mM TCEP), 0.5 ml/min; self-association: homotrimer.
Substrate in series [5]: NC(=O)OP(=O)(O)O
The series can be described thus: purified protein, by the assay type. The following applies: other: WT, CP variable, 10 mM Asp, absence of UMP; pH 8.3.

Substrate in series [6]: NC(=O)OP(=O)(O)O
The series can be described thus: Colorimetric ATC activity assay, atATC F161A. The series is classed as biochemical, Arabidopsis thaliana. The note with it: other: F161A, CP variable, 10 mM Asp; pH 8.3.

Series [7] deals with the molecule itself. The experiment in a line: crystal structure; X-ray crystal structures of the trimer (with UMP, apo, with PALA, with PALA + CP, with CP; F161A with UMP or PALA); sitting-drop vapor diffusion at room temperature, PEG 3350 conditions, data at 100 K.

`O=C(O)C[C@H](NC(=O)CP(=O)(O)O)C(=O)O` [PALA, N-(phosphonacetyl)-L-aspartate]: the “fresh weight compared to untreated seedlings” value in the series with Arabidopsis seedlings (0.2 mM PALA) is reported as 59%; with Arabidopsis seedlings (0.4 mM PALA) it was 23%. Further, the “root length relative to untreated seedlings” value came to 36% in the series with Arabidopsis seedlings (0.2 mM PALA) and 8% in the series on Arabidopsis seedlings (0.4 mM PALA). Also, the “root length, average” value with Arabidopsis seedlings (0.2 mM PALA) was 0.96 ± 0.22 cm and 0.962 cm; in the series with Arabidopsis seedlings (0.4 mM PALA) it was 0.21 ± 0.09 cm and 0.213 cm. Moreover, the “Freshweight, single replicates (10 seedlings)” value was 0.1006 g and 0.0950 g and 0.1032 g with Arabidopsis seedlings (0.2 mM PALA); 0.0435 g and 0.0329 g and 0.0417 g with Arabidopsis seedlings (0.4 mM PALA). Further, the “Freshweight, average (10 seedlings)” value in the series with Arabidopsis seedlings (0.2 mM PALA) worked out at 0.0996 g; in the series on Arabidopsis seedlings (0.4 mM PALA) it was 0.0394 g. In addition, the chlorosis of seedlings entry in the series with Arabidopsis seedlings (PALA-treated seedlings) is on record as “Chlorosis was also apparent”. The “Activity F161A” value at atATC-F161A [1] (0.01 mM PALA, [CP] 0.15 mM) was 4.41 nmol / min μg and 6.29 nmol / min μg and 5.34 nmol / min μg; at atATC-F161A [1] (0.01 mM PALA, [CP] 0.31 mM) it was 5.13 nmol / min μg and 6.44 nmol / min μg and 9.47 nmol / min μg; on atATC-F161A [1] (0.01 mM PALA, [CP] 0.63 mM) it was 25.34 nmol / min μg and 31.98 nmol / min μg and 21.75 nmol / min μg; at atATC-F161A [1] (0.01 mM PALA, [CP] 1.25 mM), 39.80 nmol / min μg and 37.97 nmol / min μg and 40.98 nmol / min μg; on atATC-F161A [1] (0.01 mM PALA, [CP] 2.50 mM), 38.56 nmol / min μg and 36.28 nmol / min μg and 37.57 nmol / min μg; on atATC-F161A [1] (0.1 mM PALA, [CP] 1.25 mM), 11.15 nmol / min μg and 10.75 nmol / min μg and 7.03 nmol / min μg. Also, the “Activity F161A” value at atATC-F161A [1] (0.1 mM PALA, [CP] 2.50 mM) was 5.52 nmol / min μg and 9.09 nmol / min μg and 9.11 nmol / min μg. For the same molecule, the “sensitivity of enzyme activity to PALA compared to WT” value at atATC-F161A [1] (F161A) was “more sensitive”. For the same molecule, the “-TΔS Site 1” value in [2] (ITC) was -21.6 kcal/mol; on atATC-F161A [3] (ITC, F161A, site 1) it was -20.4 kcal/mol. Besides, the “ΔG Site 1” value is reported as -8.5 kcal/mol in series [2] (ITC) and -9.4 kcal/mol at atATC-F161A [3] (ITC, F161A, site 1). Further, the “ΔH Site 1” value in series [2] (ITC) is 13.1 kcal/mol; on atATC-F161A [3] (ITC, F161A, site 1), 11.0 kcal/mol. Also, the Kd in series [2] (KD Site 1, ITC, 25 °C) is 590 nM and 600 nM; at atATC-F161A [3], 120 nM. Further, the “N, number of binding sites per protein trimer according to the ligand binding model” value on atATC-F161A [3] (ITC, F161A) is 1. Further, the “fold higher affinity of F161A than WT” value at atATC-F161A [3] (ITC, F161A versus WT) is recorded as 5 fold. The “Activity WT” value is 17.11 nmol / min μg and 10.69 nmol / min μg and 14.77 nmol / min μg at atATC WT (0.01 mM PALA, [CP] 0.16 mM); 20.84 nmol / min μg and 20.81 nmol / min μg and 18.28 nmol / min μg at atATC WT (0.01 mM PALA, [CP] 0.31 mM); 27.62 nmol / min μg and 26.91 nmol / min μg and 26.59 nmol / min μg on atATC WT (0.01 mM PALA, [CP] 0.63 mM); 40.50 nmol / min μg and 40.46 nmol / min μg and 40.29 nmol / min μg on atATC WT (0.01 mM PALA, [CP] 1.25 mM); 50.62 nmol / min μg and 53.39 nmol / min μg and 49.84 nmol / min μg on atATC WT (0.01 mM PALA, [CP] 2.50 mM); 66.15 nmol / min μg and 65.77 nmol / min μg and 55.96 nmol / min μg at atATC WT (0.01 mM PALA, [CP] 5.00 mM). Also, the “Activity WT” value at atATC WT (0.1 mM PALA, [CP] 0.31 mM) was 4.77 nmol / min μg and 4.92 nmol / min μg and 5.38 nmol / min μg; on atATC WT (0.1 mM PALA, [CP] 0.63 mM), 10.55 nmol / min μg and 10.43 nmol / min μg and 10.56 nmol / min μg; on atATC WT (0.1 mM PALA, [CP] 1.25 mM), 19.60 nmol / min μg and 18.57 nmol / min μg and 27.14 nmol / min μg; at atATC WT (0.1 mM PALA, [CP] 2.50 mM) it was 27.12 nmol / min μg and 29.01 nmol / min μg and 31.29 nmol / min μg; on atATC WT (0.1 mM PALA, [CP] 5.00 mM), 33.74 nmol / min μg and 33.21 nmol / min μg.

Consider `O=c1ccn([C@@H]2O[C@H](COP(=O)(O)OP(=O)(O)O)[C@@H](O)[C@H]2O)c(=O)[nH]1` [UDP], for which the “inhibition of plant ATCs” value in the series on plant ATCs is listed as “not inhibitors”.

As for `O=c1ccn([C@@H]2O[C@H](COP(=O)(O)OP(=O)(O)OP(=O)(O)O)[C@@H](O)[C@H]2O)c(=O)[nH]1` [UTP], in the series on plant ATCs, the “inhibition of plant ATCs” value is “not inhibitors”.

B1: Arabidopsis aspartate transcarbamoylase, construct spanning aa 82-390 (atATC) (enzyme, Arabidopsis thaliana, UniProt P49077 82-390, looked up)
chain: T1 sequence (P49077 82-390 F161A) with A80F
notes: Aspartate transcarbamoylase (ATC; pyrB; At3g20330) of Arabidopsis thaliana, aa 82-390 of the 390 aa precursor protein with an N-terminal chloroplast transit peptide; amplified from cDNA; No cleavage of the tag is described, and the text speaks of the size of purified atATC 'excluding the 2.6 kDa fusion tag', so the tag was probably kept; It is probably a His tag (Ni-sepharose purification); The …
For the molecule B1, the “stoichiometry N” value in series [4] is 3. Also, the K0.5 in [5] was 0.46 ± 0.10 mM.

B2: atATC mutant F161A (enzyme, Arabidopsis thaliana, UniProt P49077 82-390, looked up)
chain: T1 sequence (P49077 82-390 F161A)
notes: Aspartate transcarbamoylase (ATC; pyrB; At3g20330) of Arabidopsis thaliana, aa 82-390 of the 390 aa precursor protein, with F161 replaced by Ala; Made by site-directed mutagenesis of the atATC construct; same tag and purification as m1; also called atATC-F161A; source: E. coli BLR(DE3)-pLysS, purified (Ni-sepharose, size-exclusion chromatography on Superdex 75); not shown: fusion tag (2.6 kDa)
For the molecule B2, the K0.5 in [6] turned out to be 0.62 ± 0.13 mM. In addition, the binding result in series [7] is “binds”.
